Source: US20230374503A1, “COMBINATION” (AstraZeneca AB, priority 2014, published 2023)
In the oligonucleotide strings, read from the 5' end, every base follows the letter of its sugar. An asterisk marks phosphorothioate; unmarked linkages are phosphodiester. Other units and linkages are bracketed, terminal groups are in braces. A string of capitals states the bases alone. k = constrained ethyl (cEt); [5mC] = 5-methylcytosine; d = 2'-deoxy (DNA)

What was measured:
[1] = test system: DLBCL and HCC; assay: AZD9150 Phase I clinical trials; format: in vivo, human
[2] = test system: CT-26 tumors; assay: CT-26 tumor volume with control ASO and isotype control antibody (Example 4); format: in vivo, mouse; settings: FIG. 4
Description: (§1) The antitumor efficacy of mouse STAT3 ASO in combination with antibodies targeting PD-L1 or CTLA-4, or with an OX40 ligand fusion protein, were evaluated in three mouse syngeneic tumor models: CT-26 (colorectal), 4T1 (mammary) and A20 (lymphoma). Details of tumor implantation and treatment schedules for each model are in the table below. The QD×5/wk dosing schedule for the STAT3 ASO (same ASO as used in Example 1) was 5 days of treatment followed by 2 days without treatment. The 2×/wk dosing schedule for antibodies was 2 treatments/wk evenly spaced over the course of the week (e.g., Monday and Thursday, or Tuesday and Friday, etc.). ASO treatments began before randomization into treatment groups. […] There were ten mice in each treatment group.
(§2) The mouse STAT3 ASO was formulated in PBS and dosed subcutaneously. The Abs and FP were also formulated in PBS, and dosed introperitoneally. During the course of the experiment, tumor length and width were measured by caliper, and tumor volume calculated using the formula volume=(length×width^2)*π/6.
The CT-26 experiment in Example 3 included treatment with a control ASO (AZD9150) and an isotype control antibody (rat IgG2b, product LTF-2, purchased from BioXCell, West Lebanon NH) as negative controls.

[3] = test system: mouse STAT3 sequences; assay: Cross reaction of human STAT3 ASO with mouse STAT3 sequences; settings: human STAT3 targeted ASO
[4] = test system: immune-related genes; assay: Nanostring gene expression profiling of patient tumor biopsies, Phase I trial (Example 8); format: in vivo, human; settings: DLBCL patients; 2 or 3 mg/kg; 4-6 weeks on treatment vs baseline; five of six signature genes
Description: Tumor biopsies were collected in a Phase I clinical trial from cancer patients treated with AZD9150 before treatment started and at 4-6 weeks after treatment commenced. Patients received three loading doses 2 or 3 mg/kg AZD9150 during the first week on days 1, 3, and 5, followed by weekly doses thereafter. Nine of the sets of biopsies were from patients with Diffuse Large B Cell Lymphoma, two were from patients with follicular lymphoma, and one was from a patient with non-small cell lung cancer. The biopsies were formalin fixed and paraffin embedded and sectioned. RNA was isolated from six five-micron sections of each biopsy and subjected to Nanostring gene expression profiling analysis using the nCounter Human Immunology Codeset representing 594 immune-related genes. Raw data were calibrated according to Veldman-Jones et al., (Cancer Research. 75:2587, 2015) and analyzed for changes on-treatment compared to the baseline pretreatment samples. A heatmap representing unsupervised clustering of the largest and most statistically relevant gene expression changes in DLBCL was generated.

[5] = test system: advanced melanoma; settings: phase III; cited from earlier work
[6] = test system: xenograft model; settings: via a T-cell dependent mechanism; cited from earlier work
[7] = test system: CT-26 (colorectal), 4T1 (mammary) and A20 (lymphoma); assay: Three mouse syngeneic tumor models, tumor volume (Example 3); format: in vivo; settings: at the doses and schedules of Example 3; FIG. 3
Description: as §1, §2

## AZD9150: human STAT3 antisense 3-10-3 cEt gapmer, phosphorothioate, 5-methylcytosines, CTATTTGGATGTCAGC (SEQ ID NO: 2) (antisense k[5mC]*kT*kA*dT*dT*dT*dG*dG*dA*dT*dG*dT*d[5mC]*kA*kG*k[5mC])
[1]
  clinical response: clinical responses in DLBCL and HCC at tolerated doses
[2]; AZD9150 plus PD-L1 Ab, CT-26 tumors
  enhancement of the activity of the anti-PD-L1 antibody: no enhancement of the activity of the anti-PD-L1 antibody
[2]; mice bearing CT-26 tumors
  antitumor activity of negative controls: No Antitumor Activity
[3]
  cross reaction with mouse STAT3 sequences: does not cross react with mouse STAT3 sequences
[4]
  upregulated "interferon gamma gene signature" genes in tumor biopsies: STAT1, IFN-gamma, CXCL9, CXCL10, and IDO

## tremelimumab: human IgG2 monoclonal antibody highly selective for CTLA-4
[5]
  overall survival compared to standard of care (temozolomide or dacarbazine): did not significantly increase the overall survival

B1: MEDI4736: human monoclonal antibody directed against human PD-L1 (antibody, V domains shown)
VH: EVQLVESGGGLVQPGGSLRLSCAASGFTFSRYWMSWVRQAPGKGLEWVANIKQDGSEKYYVDSVKGRFTISRDNAKNSLYLQMNSLRAEDTAVYYCAREGGWFGELAFDYWGQGTLVTVSS
VL: EIVLTQSPGTLSLSPGERATLSCRASQRVSSSYLAWYQQKPGQAPRLLIYDASSRATGIPDRFSGSGSGTDFTLTISRLEPEDFAVYYCQQYGSLPWTFGQGTKVEIK
modifications: MEDI4736 VH; Sequence 72 from PCT/US2010/058007; MEDI4736 VL; Sequence 77 from PCT/US2010/058007
notes: human monoclonal antibody directed against human PD-L1
[6]
  tumor growth in a xenograft model: inhibits tumor growth

B2: OX40 ligand FP: Mouse OX40 ligand fusion protein generated in house, SEQ ID NO: 37 and 38 (protein)
chain: VPRDCGCKPCICTVPEVSSVFIFPPKPKDVLTITLTPKVTCVVVDISKDDPEVQFSWFVDDVEVHTAQTQPREEQFNSTFRSVSELPIMHQDWLNGKEFKCRVNSAAFPAPIEKTISKTKGRPKAPQVYTIPPPKEQMAKDKVSLTCMITDFFPEDITVEWQWNGQPAENYKNTQPIMDTDGSYFVYSKLNVQKSNWEAGNTFTCSVLHEGLHNHHTEKSLSHSPGKRLDQDKIEALSNKVQQLERSIGLKDLAMADLEQKVSELEVSTSSPAKDPPIQRLRGAVTRCEDGQLFISSYKNEYQTMEVQNNSVVIKCDGLYIIYLKGSFFQEVKIDLHFREDHNPISIPMLNDGRRIVFTVVASLAFKDKVYLTVNAPDTLCEHLQINDGELIVVQLTPGYCAPEGSYHSTVNQVPL
modifications: misc_feature 1..1248 DNA Sequence of mouse construct mIgG1mTF2mOX40L
[7]
  single agent antitumor activity: weak to modest single agent antitumor activity
